Assay results published in paper PMC9586938, “Picomolar fluorescent probes for compound affinity determination to carbonic anhydrase IX expressed in live cancer cells” (Scientific Reports, 2022).

What was measured:
CAI = molecular target: T1, CAI (Homo sapiens, UniProt P00915); assay: Thermal shift assay (TSA), recombinant CAI; format: binding; settings: 37 °C, pH 7.0, observed (not intrinsic)
T1 construct: made in house; host or cells: E. coli

CAII = molecular target: T2, CAII (Homo sapiens, UniProt P00918); assay: Thermal shift assay (TSA), recombinant CAII; format: binding; settings: 37 °C, pH 7.0, observed (not intrinsic)
T2 construct: made in house; host or cells: E. coli
Procedure: (§1) The binding affinities of all fluorescein-containing compounds were determined for all 12 catalytically active CA isozymes by the thermal shift assay (TSA). […] However, the SFA technique cannot determine the affinities lower than the enzyme concentration used in the assay. […] In addition, we used isothermal titration calorimetry (ITC), the standard assay to determine affinity and enthalpy of protein–ligand binding. […] Therefore, ITC was used only to determine the enthalpy of interaction and confirm the ordering of compound affinities.
(§2) All twelve catalytically active human CA isozymes were prepared recombinantly as previously described. Isozymes CAIX, CAXII, and CAXIV were the catalytic domains of the proteins[14],[38]. All isozymes were expressed in E. coli except CAIX that has been prepared in mammalian cells. The proteins were chromatographically purified on ion-exchange or benzene sulfonamide containing affinity columns. Protein MW was confirmed by mass spectrometry with 1 Da precision as predicted from gene sequence.
(§3) Compound affinities for the twelve catalytically active CA isozymes were determined by the thermal shift assay as previously described[30],[39]. Protein solutions containing 1,8-anilinonaphthalenesulfonate fluorescent probe were heated from 25 to 100 °C at a rate of one degree per minute while following the fluorescence of the probe. The temperature scanning curves provided the melting temperature Tm of the protein. The Tm has a distinct dependence on the concentration of a compound. Stronger binders shift the Tm to a greater extent than the weak binders. The Tm dependencies on compound concentration were fit to obtain the affinity Kd[40].

CAIII = molecular target: T3, CAIII (Homo sapiens, UniProt P07451); assay: Thermal shift assay (TSA), recombinant CAIII; format: binding; settings: 37 °C, pH 7.0, observed (not intrinsic)
T3 construct: made in house; host or cells: E. coli
Procedure: as §1, §2, §3

CAIV = molecular target: T4, CAIV (Homo sapiens, UniProt P22748); assay: Thermal shift assay (TSA), recombinant CAIV; format: binding; settings: 37 °C, pH 7.0, observed (not intrinsic)
T4 construct: made in house; host or cells: E. coli

CAVA = molecular target: T5, CAVA (Homo sapiens, UniProt P35218); assay: Thermal shift assay (TSA), recombinant CAVA; format: binding; settings: 37 °C, pH 7.0, observed (not intrinsic)
T5 construct: made in house; host or cells: E. coli
Procedure: as §1, §2, §3

CAVB = molecular target: T6, CAVB (Homo sapiens, UniProt Q9Y2D0); assay: Thermal shift assay (TSA), recombinant CAVB; format: binding; settings: 37 °C, pH 7.0, observed (not intrinsic)
T6 construct: made in house; host or cells: E. coli

CAVI = molecular target: T7, CAVI (Homo sapiens, UniProt P23280); assay: Thermal shift assay (TSA), recombinant CAVI; format: binding; settings: 37 °C, pH 7.0, observed (not intrinsic)
T7 construct: made in house; host or cells: E. coli
Procedure: as §1, §2, §3

CAVII = molecular target: T8, CAVII (Homo sapiens, UniProt P43166); assay: Thermal shift assay (TSA), recombinant CAVII; format: binding; settings: 37 °C, pH 7.0, observed (not intrinsic)
T8 construct: made in house; host or cells: E. coli

[1] = molecular target: T9, catalytic domain of recombinant human CAIX (Homo sapiens, UniProt Q16790); assay: Thermal shift assay (TSA), recombinant CAIX catalytic domain; format: binding; settings: for Kd: TSA, 37 °C, pH 7.0, observed (not intrinsic), read-out: Kd CAIX
T9 construct: Isozymes CAIX, CAXII, and CAXIV were the catalytic domains of the proteins; made in house; host or cells: mammalian cells

CAXII = molecular target: T10, CAXII (Homo sapiens, UniProt O43570); assay: Thermal shift assay (TSA), recombinant CAXII; format: binding; settings: 37 °C, pH 7.0, observed (not intrinsic)
T10 construct: Isozymes CAIX, CAXII, and CAXIV were the catalytic domains of the proteins; made in house; host or cells: E. coli
Procedure: as §1, §2, §3

CAXIII = molecular target: T11, CAXIII (Homo sapiens, UniProt Q8N1Q1); assay: Thermal shift assay (TSA), recombinant CAXIII; format: binding; settings: 37 °C, pH 7.0, observed (not intrinsic)
T11 construct: made in house; host or cells: E. coli

CAXIV = molecular target: T12, CAXIV (Homo sapiens, UniProt Q9ULX7); assay: Thermal shift assay (TSA), recombinant CAXIV; format: binding; settings: 37 °C, pH 7.0, observed (not intrinsic)
T12 construct: Isozymes CAIX, CAXII, and CAXIV were the catalytic domains of the proteins; made in house; host or cells: E. coli

[2] = molecular target: T13, CAIX expressed on HeLa cells (Homo sapiens, UniProt Q16790); assay: Fluorescein-labeled compound dosing to hypoxia-grown WT HeLa cells (Morrison single-site model); format: cell-based; settings: same conditions as GZ19-32, up to about 100 nM
T13 construct: recombinant CAIX and endogenous CAIX expressed on the cell surface; endogenous in cells; host or cells: HeLa (WT), grown under hypoxia (1% O2)
Procedure: (§4) HeLa cell culture was grown in 12-well plates, either under hypoxia (1% O2) or under normoxia (21% O2), for 70 to 76 h. The medium was removed. Then 200 µL of serially diluted compound (twelve twofold steps) in the FB medium, usually starting at 80 nM (80, 40, 20, …, 0 nM), was added and incubated at 37 ℃ under normoxia in the CO2 incubator for 20 min (2 or 5 min in some experiments where specified). Then the compound solution was removed and the cells were washed 3 times for 1.5–2 min with 400 µL of PBS at RT. Then 180 µL of TrypLe express enzyme (ThermoFisher) was added to each well and incubated in CO2 incubator for 5 min to 10 min until the cells deattached from the surface. After addition of 20 µL of Defined Trypsin Inhibitor solution (ThermoFisher), cells were resuspended by pipetting and 150 µL of the suspension from each well were transferred to black Thermo Scientific™ Nunc MicroWell 96-Well Optical-Bottom Plates for fluorescence and absorbance measurements. The fluorescence was recorded at 485 nm excitation and 520 nm emission wavelengths in the plate reader (Synergy HTX, BioTek). The absorbance was recorded at 650 nm to measure the optical density of the cell suspension.
(§5) The compound solution was prepared by weighing 3–5 mg of a purified compound and dissolving in DMSO at 10 mM concentration. The 1 mM compound stock in DMSO was prepared by taking 10 µL of 10 mM stock and adding to 90 µL DMSO. The 10 µM compound stock was prepared by taking 10 µL of 1 mM compound stock in DMSO and adding 990 µL of the FB medium (this stock contained 1% of DMSO). Then 80 nM compound solution was prepared by taking 10 µL of 10 µM solution and adding 1.24 mL of the FB medium and placed to the first Eppendorf tube. Then 300 µL of FB medium were added to the Eppendorf tubes 2 to 12. A serial dilution was performed by taking 300 µL of solution from tube 1 to 2, then from 2 to 3 and so on while mixing vigorously at each step. No solution was transferred to the last tube thus it contained only FB medium and no compound. Then 200 µL from 12 tubes were transferred to the 12 wells of cell culture-containing 12-well plate, starting from the lowest concentration.
Application of fluorescently labeled ligand GZ19-32 to cancer cells expressing CAIX will stain the cells in dose-dependent manner. The fraction of saturation increases from 0 to 1. The fraction of bound GZ19-32 (f) is equal to the molar concentration of bound GZ19-32 per molar concentration of total available CAIX, the so-called total protein Pt . f=GZ19-32bound/Pt
Upon GZ19-32 dosing, the observed fluorescence signal F can be modeled to change from the minimal background signal ( Fmin ) to maximal saturated value ( Fmax ): F=Fmin+Fmax-Fminf […]

[3] = system: HeLa CAIX-KO and normoxia-grown WT HeLa cells; assay: Fluorescein-labeled compound dosing to CAIX-KO and normoxia-grown HeLa cells (non-specific binding); format: cell-based, human; settings: micromolar concentration range, Fig. 9B, 9C
Procedure: as §4, §5
This equation was fit to the dosing curves of several fluorescently-labeled ligands to both the cells grown in hypoxia and in normoxia, both to the WT and CRISPR-Cas9 CAIX knockout cells. The cells bound both the GZ19-32 and GZ20-40 ligands that differed only in the length of the linker and both contained the same head-group. […] Furthermore, the ligands that had their sulfonamide amino group substituted with the methyl completely abandoned their capability of binding CAIX in this concentration region. The binding was also abolished for the CAIX-KO HeLa cells.

[4] = molecular target: CAIX expressed on live A549 cells (Homo sapiens, UniProt Q16790); assay: Competition of unlabeled compound with 10 nM GZ19-32 on hypoxic A549 cells (competitive binding model); settings: ratio of KdA

T11 sequence (Q8N1Q1 whole entry): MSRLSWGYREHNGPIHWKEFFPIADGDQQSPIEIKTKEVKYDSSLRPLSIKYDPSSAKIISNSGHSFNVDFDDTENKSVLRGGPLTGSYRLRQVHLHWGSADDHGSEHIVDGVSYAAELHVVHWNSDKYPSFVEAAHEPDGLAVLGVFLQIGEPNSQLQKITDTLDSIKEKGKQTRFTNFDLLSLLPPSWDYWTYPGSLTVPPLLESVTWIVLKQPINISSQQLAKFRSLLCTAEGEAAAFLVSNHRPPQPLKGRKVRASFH
T7 sequence (P23280 18-308): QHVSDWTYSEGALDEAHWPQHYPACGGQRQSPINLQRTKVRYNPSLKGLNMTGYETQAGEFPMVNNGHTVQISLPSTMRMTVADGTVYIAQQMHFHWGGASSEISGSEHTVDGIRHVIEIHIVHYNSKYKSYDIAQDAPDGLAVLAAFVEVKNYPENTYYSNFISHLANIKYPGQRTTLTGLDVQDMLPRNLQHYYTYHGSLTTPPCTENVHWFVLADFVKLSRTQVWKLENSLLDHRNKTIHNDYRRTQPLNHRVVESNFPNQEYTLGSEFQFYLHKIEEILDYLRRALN
T1 sequence (P00915 whole entry): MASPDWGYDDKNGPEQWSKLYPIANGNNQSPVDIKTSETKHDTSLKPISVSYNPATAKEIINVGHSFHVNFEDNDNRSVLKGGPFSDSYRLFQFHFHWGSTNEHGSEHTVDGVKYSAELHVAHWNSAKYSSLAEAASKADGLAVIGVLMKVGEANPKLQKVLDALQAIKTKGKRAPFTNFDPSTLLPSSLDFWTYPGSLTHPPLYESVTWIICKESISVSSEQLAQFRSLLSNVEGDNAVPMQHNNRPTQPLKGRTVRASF
T12 sequence (Q9ULX7 20-278 limits assumed): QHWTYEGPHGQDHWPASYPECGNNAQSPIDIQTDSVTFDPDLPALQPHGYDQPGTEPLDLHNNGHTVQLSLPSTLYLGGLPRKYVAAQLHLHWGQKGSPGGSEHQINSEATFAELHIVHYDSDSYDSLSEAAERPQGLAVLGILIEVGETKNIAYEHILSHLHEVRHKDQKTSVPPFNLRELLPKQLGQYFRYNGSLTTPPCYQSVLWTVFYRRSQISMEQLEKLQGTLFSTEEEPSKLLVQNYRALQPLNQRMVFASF
T6 sequence (Q9Y2D0 34-317): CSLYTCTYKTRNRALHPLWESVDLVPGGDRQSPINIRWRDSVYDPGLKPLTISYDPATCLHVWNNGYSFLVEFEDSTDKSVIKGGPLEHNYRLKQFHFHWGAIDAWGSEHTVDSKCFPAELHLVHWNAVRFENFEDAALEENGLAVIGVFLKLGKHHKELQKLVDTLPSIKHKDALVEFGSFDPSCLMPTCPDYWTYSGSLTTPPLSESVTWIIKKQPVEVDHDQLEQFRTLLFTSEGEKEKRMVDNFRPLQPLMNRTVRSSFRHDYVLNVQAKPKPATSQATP
T8 sequence (P43166 whole entry): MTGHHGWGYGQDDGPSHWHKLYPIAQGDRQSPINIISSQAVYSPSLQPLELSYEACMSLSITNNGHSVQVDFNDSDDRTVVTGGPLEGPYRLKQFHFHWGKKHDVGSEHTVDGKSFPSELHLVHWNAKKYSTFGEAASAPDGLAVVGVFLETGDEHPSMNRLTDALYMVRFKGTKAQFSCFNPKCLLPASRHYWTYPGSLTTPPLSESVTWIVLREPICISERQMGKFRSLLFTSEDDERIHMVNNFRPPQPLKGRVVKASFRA
T10 sequence (O43570 30-289 limits assumed): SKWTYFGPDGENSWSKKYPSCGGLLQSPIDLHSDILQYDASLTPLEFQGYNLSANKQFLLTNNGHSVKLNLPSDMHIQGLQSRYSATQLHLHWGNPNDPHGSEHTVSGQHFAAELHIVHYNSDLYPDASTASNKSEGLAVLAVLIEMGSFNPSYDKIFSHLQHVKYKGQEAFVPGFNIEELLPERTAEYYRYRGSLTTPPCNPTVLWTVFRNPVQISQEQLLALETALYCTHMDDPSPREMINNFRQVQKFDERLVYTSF
T4 sequence (P22748 19-312): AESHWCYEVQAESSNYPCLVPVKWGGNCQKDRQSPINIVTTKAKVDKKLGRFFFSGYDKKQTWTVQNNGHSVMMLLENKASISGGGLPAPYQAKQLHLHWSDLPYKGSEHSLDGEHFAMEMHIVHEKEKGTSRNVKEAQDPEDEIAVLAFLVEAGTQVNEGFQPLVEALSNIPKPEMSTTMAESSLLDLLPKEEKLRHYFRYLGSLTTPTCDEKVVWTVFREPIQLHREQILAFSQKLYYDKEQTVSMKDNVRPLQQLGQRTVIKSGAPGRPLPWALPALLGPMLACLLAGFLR
T5 sequence (P35218 39-305): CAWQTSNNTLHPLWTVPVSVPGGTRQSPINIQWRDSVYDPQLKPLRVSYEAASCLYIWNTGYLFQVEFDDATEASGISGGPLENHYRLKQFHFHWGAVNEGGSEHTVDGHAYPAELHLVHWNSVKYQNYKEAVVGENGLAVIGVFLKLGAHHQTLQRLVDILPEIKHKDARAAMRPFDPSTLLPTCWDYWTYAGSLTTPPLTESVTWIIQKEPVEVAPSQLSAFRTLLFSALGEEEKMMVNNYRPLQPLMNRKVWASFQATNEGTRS
T3 sequence (P07451 whole entry): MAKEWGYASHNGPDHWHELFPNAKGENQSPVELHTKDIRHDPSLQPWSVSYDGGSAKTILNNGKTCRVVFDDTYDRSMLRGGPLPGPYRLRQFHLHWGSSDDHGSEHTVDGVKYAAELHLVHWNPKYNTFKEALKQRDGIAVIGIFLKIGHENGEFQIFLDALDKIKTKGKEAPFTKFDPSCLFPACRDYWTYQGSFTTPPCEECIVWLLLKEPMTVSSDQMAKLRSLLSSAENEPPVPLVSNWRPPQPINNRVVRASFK

## NS(=O)(=O)c1c(F)c(F)c(S(=O)(=O)CCC(=O)Nc2ccc3c(c2)C(=O)OC32c3ccc(O)cc3Oc3cc(O)ccc32)c(F)c1F [GZ19-31, N-(3',6'-dihydroxy-3-oxo-3H-spiro[isobenzofuran-1,9'-xanthen]-5-yl)-3-((2,3,5,6-tetrafluoro-4-sulfamoylphenyl)sulfonyl)propanamide]
CAI
  Kd: 0.005 nM
CAII
  Kd: 1.7 nM
CAIII
  Kd: 2500 nM
CAIV
  Kd: 140 nM
CAVA
  Kd: 29 nM
CAVB
  Kd: 20 nM
CAVI
  Kd: 140 nM
CAVII
  Kd: 2 nM
[1]
  Kd: 1.7 nM
[1]; recombinant CAIX
  binding to CAIX by TSA (in words): medium affinity (nM range)
CAXII
  Kd: 40 nM
CAXIII
  Kd: 1.7 nM
CAXIV
  Kd: 25 nM
[2]
  binding to hypoxia-grown HeLa cells in the nM concentration region: did not bind
[3]
  non-specific binding to cells: bound cells in the micromolar concentration range
other
  melting point: 175 to 176 °C

## CS(=O)(=O)c1c(F)c(F)c(SCCC(=O)Nc2ccc3c(c2)C(=O)OC32c3ccc(O)cc3Oc3cc(O)ccc32)c(F)c1F [GZ19-33, N-(3',6'-dihydroxy-3-oxo-3H-spiro[isobenzofuran-1,9'-xanthen]-5-yl)-3-((2,3,5,6-tetrafluoro-4-(methylsulfonyl)phenyl)thio)propanamide]
CAI
  Kd: > 100000 nM
CAII
  Kd: > 100000 nM
CAIII
  Kd: > 100000 nM
CAIV
  Kd: > 100000 nM
CAVA
  Kd: > 100000 nM
CAVB
  Kd: > 100000 nM
CAVI
  Kd: > 100000 nM
CAVII
  Kd: > 100000 nM
[1]
  Kd: > 100000 nM
CAXII
  Kd: > 100000 nM
CAXIII
  Kd: > 100000 nM
CAXIV
  Kd: > 100000 nM
[3]
  non-specific binding to cells: bound cells in the micromolar concentration range
other
  melting point: 181 to 182 °C

## NS(=O)(=O)c1c(F)c(F)c(S(=O)(=O)CCC(=O)NCCCC(=O)Nc2ccc3c(c2)C(=O)OC32c3ccc(O)cc3Oc3cc(O)ccc32)c(NC2CCCCCCC2)c1F [GZ20-40, 4-(3-((2-(cyclooctylamino)-3,5,6-trifluoro-4-sulfamoylphenyl)sulfonyl)propanamido)-N-(3',6'-dihydroxy-3-oxo-3H-spiro[isobenzofuran-1,9'-xanthen]-5-yl)butanamide]
CAI
  Kd: 500 nM
CAII
  Kd: 200 nM
CAIII
  Kd: 6700 nM
CAIV
  Kd: 500 nM
CAVA
  Kd: 1000 nM
CAVB
  Kd: 33 nM
CAVI
  Kd: 250 nM
CAVII
  Kd: 7 nM
[1]
  Kd: 0.01 nM
CAXII
  Kd: 7 nM
CAXIII
  Kd: 1 nM
CAXIV
  Kd: 2.5 nM
other
  melting point: 180 to 181 °C

## NS(=O)(=O)c1ccc(NC(=O)Nc2ccc(F)cc2)cc1 [SLC-0111, 4-(3-(4-fluorophenyl)ureido)benzenesulfonamide, reference compound]
CAIII
  Kd: > 200000 nM
CAVA
  Kd: 6000 nM
CAVI
  Kd: 10000 nM
[4]
  weaker binding to CAIX in A549 than HeLa cells: 6 times
